Assay [1] deals with Staphylococcus aureus. Kind of assay: Minimum inhibitory concentration required for antibacterial activity against Staphylococcus aureus Oxford. The assay is classed as functional.
The subject of the next assay is Pseudomonas aeruginosa. Nature of the assay: Minimum inhibitory concentration required for antibacterial activity against Pseudomonas aeruginosa 10662. The assay is classed as functional.
For assay [2], the system named is Streptococcus pneumoniae. Nature of the assay: Minimum inhibitory concentration required for antibacterial activity against Streptococcus pneumoniae 1761. The assay is classed as functional.
The test system of the next assay is Streptococcus pyogenes. Kind of assay: Minimum inhibitory concentration required for antibacterial activity against Streptococcus pyogenes CN 10. The assay is classed as functional.
Assay [3] has as its system Haemophilus influenzae. Nature of the assay: Minimum inhibitory concentration required for antibacterial activity against Haemophilus influenzae Q1. The assay is classed as functional.
The test system of a further assay is Moraxella catarrhalis. Kind of assay: Minimum inhibitory concentration required for antibacterial activity against Moraxella catarrhalis Ravasio. The assay is classed as functional.
In assay [4] the test system is Escherichia coli. Kind of assay: Minimum inhibitory concentration required for antibacterial activity against Escherichia coli ESS. It counts as functional.
Assay [5] deals with Staphylococcus aureus. Kind of assay: Minimum inhibitory concentration required for antibacterial activity against Staphylococcus aureus MB9. The assay is classed as functional.
The test system of assay [6] is Escherichia coli. Kind of assay: Minimum inhibitory concentration required for antibacterial activity against Escherichia coli 10418. The assay is classed as functional.
For assay [7], the system named is Staphylococcus epidermidis. Kind of assay: Minimum inhibitory concentration required for antibacterial activity against Staphylococcus epidermidis PHLN 20. The assay is classed as functional.
For assay [8], the system named is Staphylococcus aureus. Nature of the assay: Minimum inhibitory concentration required for antibacterial activity against Staphylococcus aureus Russell. The assay is classed as functional.
The next assay deals with Morganella morganii. Nature of the assay: Minimum inhibitory concentration required for antibacterial activity against Morg. morganii T361. It counts as functional.
Assay [9] deals with Escherichia coli. Nature of the assay: Minimum inhibitory concentration required for antibacterial activity against Escherichia coli JT425. It counts as functional.
For assay [10], the system named is Escherichia coli. Nature of the assay: Minimum inhibitory concentration required for antibacterial activity against Escherichia coli 1077. The assay is classed as functional.
The subject of assay [11] is Haemophilus influenzae. Nature of the assay: Minimum inhibitory concentration required for antibacterial activity against Haemophilus influenzae NEMC1. It counts as functional.
The test system of the next assay is Streptococcus agalactiae. Kind of assay: Minimum inhibitory concentration required for antibacterial activity against Streptococcus agalactiae 2798. It counts as functional.
The next assay has as its system Proteus mirabilis. Kind of assay: Minimum inhibitory concentration required for antibacterial activity against Pr. mirabilis C977. It counts as functional.
The subject of assay [12] is Streptococcus pneumoniae. Kind of assay: Minimum inhibitory concentration required for antibacterial activity against Streptococcus pneumoniae PU 7. The assay is classed as functional.
A further assay concerns Klebsiella pneumoniae. Nature of the assay: Minimum inhibitory concentration required for antibacterial activity against Klebsiella pneumoniae T767. It counts as functional.
In another assay the test system is Enterococcus faecalis. Kind of assay: Minimum inhibitory concentration required for antibacterial activity against Ent. faecalis I. The assay is classed as functional.
In assay [13] the test system is Staphylococcus aureus. Kind of assay: Minimum inhibitory concentration required for antibacterial activity against Staphylococcus aureus Russell.
Assay [14] relates to Staphylococcus aureus. Nature of the assay: Minimum inhibitory concentration required for antibacterial activity against Staphylococcus aureus Oxford.

Each structure is given as a SMILES string.

In the case of `CO/N=C(\C(=O)N[C@@H]1C(=O)N2C(C(=O)[O-])=C(CC3C=CC(=O)O3)CS[C@H]12)c1csc(N)n1.[Na+]` (stereo not given in full), the MIC against Staphylococcus aureus [1] was 1 µg/mL; against Pseudomonas aeruginosa it was more than 64 µg/mL; against Streptococcus pneumoniae [2], less than 0.03 µg/mL; in the assay on Streptococcus pyogenes it was less than 0.03 µg/mL; in the assay on Haemophilus influenzae [3] it was 0.06 µg/mL; against Moraxella catarrhalis it was 0.5 µg/mL. Besides, the MIC against Escherichia coli [4] is less than 0.03 µg/mL; with Staphylococcus aureus [5] it was 4 µg/mL; in the assay with Escherichia coli [6], 0.06 µg/mL; in assay [7] it was 4 µg/mL; against Staphylococcus aureus [8] it was 1 µg/mL; in the assay with Morganella morganii, 0.5 µg/mL. In addition, the MIC was 4 µg/mL in the assay with Escherichia coli [9]; 0.5 µg/mL in the assay with Escherichia coli [10]; less than 0.03 µg/mL in the assay with Haemophilus influenzae [11]; 0.06 µg/mL against Streptococcus agalactiae; 0.25 µg/mL in the assay with Proteus mirabilis; 4 µg/mL against Streptococcus pneumoniae [12]. The MIC in the assay with Klebsiella pneumoniae is 0.5 µg/mL; against Enterococcus faecalis, more than 64 µg/mL.
For the compound `CO/N=C(\C(=O)N[C@@H]1C(=O)N2C(C(=O)[O-])=C(C3CCC(=O)O3)CS[C@H]12)c1csc(N)n1.[Na+]` (stereo not given in full), the MIC is 1 µg/mL in the assay on Staphylococcus aureus [1]; 64 µg/mL with Pseudomonas aeruginosa; less than 0.03 µg/mL against Streptococcus pneumoniae [2]; less than 0.03 µg/mL in the assay with Streptococcus pyogenes; 0.06 µg/mL against Haemophilus influenzae [3]; 2 µg/mL with Moraxella catarrhalis. Besides, the MIC is less than 0.03 µg/mL with Escherichia coli [4]; 2 µg/mL in the assay on Staphylococcus aureus [5]; less than 0.03 µg/mL against Escherichia coli [6]; 0.5 µg/mL in assay [7]; 1 µg/mL with Staphylococcus aureus [8]; 0.06 µg/mL in the assay with Morganella morganii. In addition, the MIC with Escherichia coli [9] was 1 µg/mL; against Escherichia coli [10], 0.12 µg/mL; in the assay with Haemophilus influenzae [11], less than 0.03 µg/mL; against Streptococcus agalactiae, 0.06 µg/mL; in the assay on Proteus mirabilis it was less than 0.03 µg/mL; in the assay with Streptococcus pneumoniae [12], 2 µg/mL. Also, the values for the MIC against Klebsiella pneumoniae and against Enterococcus faecalis were 0.06 µg/mL and more than 64 µg/mL, respectively.
Take `CO/N=C(\C(=O)N[C@@H]1C(=O)N2C(C(=O)[O-])=C(/C=C3\C=C(C)C(=O)O3)CS[C@H]12)c1csc(N)n1.[Na+]`: the MIC against Pseudomonas aeruginosa is 32 µg/mL; with Streptococcus pneumoniae [2] it was less than 0.03 µg/mL; in the assay with Streptococcus pyogenes, less than 0.03 µg/mL; with Haemophilus influenzae [3], less than 0.03 µg/mL; with Moraxella catarrhalis, 8 µg/mL; in the assay with Escherichia coli [4], less than 0.03 µg/mL. Also, the MIC in the assay on Staphylococcus aureus [5] is 4 µg/mL; with Escherichia coli [6], less than 0.03 µg/mL; in [7] it was 2 µg/mL; against Staphylococcus aureus [13] it was 2 µg/mL; in the assay with Morganella morganii it was less than 0.06 µg/mL; against Escherichia coli [9], 2 µg/mL. In addition, the MIC was 1 µg/mL in the assay with Escherichia coli [10]; less than 0.03 µg/mL against Haemophilus influenzae [11]; less than 0.03 µg/mL against Streptococcus agalactiae; 0.06 µg/mL against Proteus mirabilis; 0.5 µg/mL against Streptococcus pneumoniae [12]; 1 µg/mL in the assay on Klebsiella pneumoniae. Besides, the MIC in the assay with Staphylococcus aureus [14] amounted to 1 µg/mL; against Enterococcus faecalis, 16 µg/mL.
`CO/N=C(\C(=O)N[C@@H]1C(=O)N2C(C(=O)[O-])=C(COC(C)=O)CS[C@H]12)c1csc(N)n1.[Na+]` [CEFOTAXIME SODIUM]: the MIC against Staphylococcus aureus [1] was 2 µg/mL; with Pseudomonas aeruginosa it was 16 µg/mL; with Streptococcus pneumoniae [2], less than 0.03 µg/mL; with Streptococcus pyogenes it was less than 0.03 µg/mL; against Haemophilus influenzae [3], less than 0.03 µg/mL; against Moraxella catarrhalis it was 0.25 µg/mL. Further, the MIC was less than 0.03 µg/mL in the assay on Escherichia coli [4]; 4 µg/mL against Staphylococcus aureus [5]; less than 0.03 µg/mL against Escherichia coli [6]; 1 µg/mL in assay [7]; 2 µg/mL against Staphylococcus aureus [8]; 2 µg/mL in the assay on Morganella morganii. For the same compound, the MIC with Escherichia coli [9] is 0.5 µg/mL; in the assay on Escherichia coli [10], less than 0.03 µg/mL; against Haemophilus influenzae [11], less than 0.03 µg/mL; in the assay with Streptococcus agalactiae, 0.12 µg/mL; with Proteus mirabilis it was less than 0.03 µg/mL; in the assay on Streptococcus pneumoniae [12], 2 µg/mL. The MIC with Klebsiella pneumoniae was 0.06 µg/mL; in the assay with Enterococcus faecalis it was more than 64 µg/mL.

The record behind these values is ChEMBL document CHEMBL1151580, “Synthesis and antibacterial activity of some C-3-lactonyl substituted cephalosporins” (1993).
